{"source": "patent US20120238915A1", "about": "“SOUND WAVE TREATMENT PLATFORM AND SOUND WAVE TREATMENT METHOD” (priority 2011, published 2012)", "key": {"[1]": {"system": "non-operable pancreatic cancer"}, "[2]": {"system": "metastatic pancreatic cancer to liver", "experiment": "Example 1: patient treated with non-focused sound waves with Bleomycin", "type": "in vivo, human", "conditions": "30 mg Bleomycin + sound waves 0.3 MHz", "description": "person one was diagnosed with metastatic pancreatic cancer to liver. Treatment history was as follows: Gemcitabine, Tykerb, Xeloda, and 6000R radiation therapy. Despite multiple treatments, patient's condition continues to worsen with increased abdominal pain. The patient was taking pain medication with constipation.\nThe patient was treated according to the present invention with 30 mg Bleomycin (Frequency: 0.3 MHz; power intensity: less than 2 W/cm^2; duration: less than 30 minutes). […] Their tumor marker CA19-9 decreased from 1465 to 406 in 9 days after the treatment. They remained pain free for 150 days after the treatment till their death clue to organ failure."}, "[3]": {"system": "metastatic pancreatic cancer to liver", "experiment": "Example 4: patient treated with non-focused sound waves with Bleomycin", "type": "in vivo, human", "conditions": "30 mg Bleomycin + sound waves 0.3 MHz", "description": "person three was diagnosed with metastatic pancreatic cancer to liver and has been treated with Palliative bypass operation. No chemotherapy history. They were in very terminal stage with severe jaundice and great pain. They used Fetanyl patch and additional pain medication. The patient was treated according to the present invention with 30 mg Bleomycin (Frequency: 0.3 MHz; power intensity: less than 2 W/cm^2; duration: less than 30 minutes). […] They remained pain free for 4 days till their death due to hepatic failure."}, "metastatic breast cancer": {"system": "metastatic breast cancer", "experiment": "Example 6: patient treated with non-focused sound waves with Bleomycin", "type": "in vivo, human", "conditions": "30 mg Bleomycin + sound waves 0.3 MHz", "description": "person two was diagnosed with metastatic breast cancer, and complained of three weeks left shoulder pain.\n(§1) The patient was treated according to the present invention with 30 mg Bleomycin (Frequency: 0.3 MHz; power intensity: less than 2 W/cm^2; duration: less than 30 minutes)."}, "[4]": {"system": "metastatic oral cancer to the face", "experiment": "Example 7: patient treated with non-focused sound waves with Bleomycin", "type": "in vivo, human", "conditions": "30 mg Bleomycin + sound waves 0.3 MHz", "description": "person six was diagnosed with metastatic oral cancer to the face, and complained of severe facial pain. They have been treated with multiple surgery and chemoradiation. They presented with a large area of metastatic facial mass, and their right eye was bulging due to tumor infiltration.\nas §1"}, "terminal hepatoma": {"system": "terminal hepatoma", "experiment": "Example 8: patient treated with non-focused sound waves with Bleomycin", "type": "in vivo, human", "conditions": "30 mg Bleomycin + sound waves 0.3 MHz", "description": "person four was diagnosed with terminal hepatoma and liver pain.\nas §1"}, "[5]": {"system": "recurrent breast cancer and metastasis to the liver", "experiment": "Example 9: patient treated with non-focused sound waves with Bleomycin", "type": "in vivo, human", "description": "person two was diagnosed with recurrent breast cancer and metastasis to the liver. They had multiple chemotherapy and target medicine treatment.\nThe patient was treated twice (one week apart) according to the present invention with 30 mg Bleomycin each time (Frequency: 0.3 MHz; power intensity: less than 2 W/cm^2; duration: less than 30 minutes (each time)). […] Their right upper quadrant pain resolved and remained pain free over 18 months till last follow up."}, "[6]": {"system": "terminal metastatic ovarian cancer", "experiment": "Example 10: patient treated with non-focused sound waves with Bleomycin", "type": "in vivo, human", "description": "person five was diagnosed with terminal metastatic ovarian cancer with colostomy and complained of abdominal pain.\nThe patient was treated twice (one week apart) according to the present invention combined with 30 mg Bleomycin each time (Frequency: 0.3 MHz; power intensity: less than 2 W/cm^2; duration: less than 30 minutes (each time)). […] They remained pain free for over 8 months till their death due to sepsis."}, "[7]": {"system": "recurrent pancreatic cancer", "conditions": "human, in vivo"}, "[8]": {"system": "metastatic pancreatic cancer to liver", "experiment": "Example 3: patient treated with non-focused sound waves with Bleomycin", "conditions": "30 mg Bleomycin + sound waves 0.3 MHz"}, "[9]": {"conditions": "person two, 30 mg Bleomycin + sound waves 0.3 MHz"}}}
{"compound": "Nc1ccn([C@@H]2O[C@H](CO)[C@@H](O)C2(F)F)c(=O)n1", "note": "[Gemcitabine]", "values": [{"measurement": "tumor growth in diameter", "setting": "[1]; during at least four months of weekly Gemcitabine, after Bleomycin + sound wave treatments", "value": 1.4, "unit": "cm"}]}
{"compound": "Bleomycin", "values": [{"measurement": "tumor marker CA19-9", "setting": "[2]; decreased from 1465, in 9 days after the treatment", "value": 406}, {"measurement": "constipation symptom", "setting": "[2]; person one, after the treatment", "value": "relieved"}, {"measurement": "pain medication use after treatment", "setting": "[2]; person one, one treatment", "value": "has not taken any pain medication since the treatment"}, {"measurement": "side effect", "setting": "[2]; person one, one treatment", "value": "no side effect was observed"}, {"measurement": "patient's pain", "setting": "[2]; person one, one treatment, <2 W/cm^2, <30 min", "value": "dissolved"}, {"measurement": "remained pain free after the treatment", "setting": "[2]; till death due to organ failure", "value": 150, "unit": "days"}, {"measurement": "pain medication use after treatment", "setting": "[3]", "value": "without using anymore pain medication"}, {"measurement": "side effect", "setting": "[3]; person three", "value": "no side effect was observed"}, {"measurement": "time in which pain vanished", "setting": "[3]; person three, one treatment", "value": 6, "unit": "h"}, {"measurement": "pain", "setting": "[3]; person three, one treatment, <2 W/cm^2, <30 min", "value": "totally vanished"}, {"measurement": "remained pain free", "setting": "[3]; till death due to hepatic failure", "value": 4, "unit": "days"}, {"measurement": "pain free duration", "setting": "metastatic breast cancer", "value": "over seven months"}, {"measurement": "side effect", "setting": "metastatic breast cancer; person two, one treatment, <2 W/cm^2, <30 min", "value": "no side effect was observed"}, {"measurement": "shoulder pain", "setting": "metastatic breast cancer; till death due to brain metastasis", "value": "did not have shoulder pain"}, {"measurement": "facial tumor size", "setting": "[4]", "value": "decreased in size"}, {"measurement": "right eye (bulging due to tumor infiltration)", "setting": "[4]", "value": "less bulging and could rotate"}, {"measurement": "side effect", "setting": "[4]; person six", "value": "no side effect"}, {"measurement": "facial pain", "setting": "[4]; person six, one treatment, <2 W/cm^2, <30 min", "value": "totally resolved"}, {"measurement": "remained pain free", "setting": "[4]; till last follow up", "value": "over 33 days"}, {"measurement": "pain free till death", "setting": "terminal hepatoma", "value": 14, "unit": "days"}, {"measurement": "side effect", "setting": "terminal hepatoma; person four", "value": "no side effect"}, {"measurement": "right quadrant pain", "setting": "terminal hepatoma; person four, one treatment, <2 W/cm^2, <30 min", "value": "vanished"}, {"measurement": "right upper quadrant pain", "setting": "[5]; 30 mg Bleomycin twice + sound waves 0.3 MHz", "value": "resolved"}, {"measurement": "liver tumor diameter (imaging study), second tumor", "setting": "[5]; decreased from 7 cm, after the first treatment", "value": 4, "unit": "cm"}, {"measurement": "liver tumor diameter (imaging study), first tumor", "setting": "[5]; decreased from 10 cm, after the first treatment", "value": 7, "unit": "cm"}, {"measurement": "side effect", "setting": "[5]; [9]", "value": "no side effect"}, {"measurement": "liver tumors size", "setting": "[5]; person two, after the first of two treatments one week apart, 30 mg Bleomycin each + sound waves 0.3 MHz, <2 W/cm^2, <30 min", "value": "significantly decreased in size"}, {"measurement": "follow up imaging studies", "setting": "[5]; several follow up imaging studies, 30 mg Bleomycin twice + sound waves", "value": "stable liver metastasis"}, {"measurement": "remained pain free", "setting": "[5]; till last follow up, 30 mg Bleomycin twice + sound waves", "value": "over 18 months"}, {"measurement": "side effect", "setting": "[6]; person five, 30 mg Bleomycin + sound waves 0.3 MHz", "value": "no side effect"}, {"measurement": "abdominal pain", "setting": "[6]; person five, after the first of two treatments one week apart, 30 mg Bleomycin each + sound waves 0.3 MHz, <2 W/cm^2, <30 min", "value": "resolved"}, {"measurement": "remained pain free", "setting": "[6]; till death due to sepsis, 30 mg Bleomycin twice + sound waves", "value": "over 8 months"}, {"measurement": "body weight", "setting": "[7]", "value": "increased"}, {"measurement": "pain medication use after treatment", "setting": "[7]", "value": "has not taken any pain medication since the first treatment till their death"}, {"measurement": "pain scale", "setting": "[7]", "value": "0-1"}, {"measurement": "physical activity", "setting": "[7]", "value": "returned to near normal"}, {"measurement": "remained pain free after the treatment", "setting": "[7]", "value": 170, "unit": "days"}, {"measurement": "side effect", "setting": "[7]", "value": "no side effect was observed"}, {"measurement": "survival after first diagnosis", "setting": "[7]", "value": "lived two years after their first diagnosis"}, {"measurement": "jaundice", "setting": "[1]; after Bleomycin + sound wave treatments and weekly Gemcitabine", "value": "did not have jaundice"}, {"measurement": "blood sugar", "setting": "[1]; insulin dependent diabetic patient, after the treatment, remained till death", "value": "returned to normal level without using insulin"}, {"measurement": "side effect", "setting": "[1]; [9]", "value": "no side effect was observed"}, {"measurement": "pancreatic region pain", "setting": "[1]; person two, after the first treatment, 30 mg Bleomycin + sound waves 0.3 MHz, <2 W/cm^2, <30 min", "value": "resolved"}, {"measurement": "remained pain free after the treatment", "setting": "[1]; till death, 30 mg Bleomycin three times (third followed by 1000 mg Gemcitabine) + sound waves", "value": 183, "unit": "days"}, {"measurement": "pain free", "setting": "[8]", "value": 32, "unit": "days"}, {"measurement": "side effect", "setting": "[8]; person seven", "value": "no side effect was observed"}, {"measurement": "patient's pain", "setting": "[8]; person seven, one treatment, <2 W/cm^2, <30 min", "value": "totally dissolved"}, {"measurement": "pain medication use after treatment", "setting": "[8]; until death due to sepsis", "value": "without using any pain medication"}]}
